The test system of one experiment is NCI-H1650. The experiment is described as follows: Cell proliferation MTS assay. In kind it is cell-based. The settings on record: Homo sapiens, read-out: IC50 NCI-H1650 (PTEN null). How it is done:
(§1) IC50 was calculated using Activity Base. Data shown as mean ± standard deviation. […] (DOCX) Click here for additional data file.
(§2) Treated cells were incubated at 37°C for 72 hours in 5% CO2.
(§3) The GI50 was then determined using Microsoft ExcelFit software in Activity Base.

The test system of the next experiment is KU-19-19. The experiment is described as follows: Cell proliferation MTS assay. The following applies: Homo sapiens, read-out: IC50 KU-19-19 (AKT1-E17K, NrasQ61R). Type of experiment: cell-based. How it is done:
as §1, §2, §3

A further experiment concerns MDA-MB-453. The experiment is described as follows: Cell proliferation MTS assay. Type of experiment: cell-based. The settings on record: Homo sapiens, read-out: IC50 MDA-MB-453 (PIK3CAH1047R). On the procedure: as §1, §2, §3
The next experiment concerns the target T1, AKT1-WT (Homo sapiens, UniProt P31749).
T1 construct: host or cells: NIH 3T3 cells
In words: AKT1 plasma membrane translocation in NIH 3T3 cells. In kind it is cell-based. The settings on record: NIH 3T3, 1 μM for 2 hours, PDGF-BB 50 ng/ml 10 minutes. How it is done: (§4) Cells (15,000 cells per chamber) were plated into a Nunc Lab-Tek Chambered Coverglass System (Thermo Fisher Scientific, Waltham, MA) containing full media without antibiotics. […] Next, the cells were stimulated with PDGF (PeproTech, Rocky Hill, NJ) at 50 ng/ml for 10 minutes. Cells were washed with PBS and then fixed with 200 μl paraformaldehyde fixation buffer (3% paraformaldehyde, 2% sucrose in PBS, pre-warmed at […]). After washing with PBS, cells were blocked and permeabolized with 0.1% TX-100 + 1% BSA in PBS for 15 minutes at room temperature. Next, 200 μl DAPI (1 μg/ml in PBS) was used to counterstain the nuclei at room temperature in darkness for 15 minutes. Samples were then rinsed with cold PBS and stored at 4°C until imaging. Images were captured using an Olympus inverted epi-fluorescent microscope (Olympus Corporation of America, Center Valley, PA) with a 60x oil immersion objective.

Another experiment has as its target T2, AKT1-E17K (Homo sapiens, UniProt P31749, E17K).
T2 construct: host or cells: NIH 3T3 cells
The experiment is described as above. The settings on record: NIH 3T3, 1 μM for 2 hours, PDGF-BB 50 ng/ml 10 minutes. Type of experiment: cell-based. On the procedure: as §4

Another experiment concerns KPL-4 tumors. In words: KPL-4 xenograft combination study. The settings on record: vs untreated control; ARQ 092 60 mg/kg oral daily 12 days; trastuzumab 15 mg/kg iv every three days; paclitaxel 15 mg/kg iv every 6 days. In kind it is in vivo, mice.
Experiment [1] concerns melanoma PDX tumor model (ST052C). The experiment is described as follows: Vemurafenib-resistant melanoma PDX combination study. In kind it is in vivo, mice. The settings on record: ARQ 092 100 mg/kg 5 days on 2 days off; trametinib 3 mg/kg; p<0.05.
Description: Athymic nude mice (Charles River Laboratories, Wilmington, MA) were subcutaneously implanted with tumor fragments and the study was initiated seven days later when the mean tumor volume was approximately 140 mm^3. […] After 13 days, the dosing schedule for trametinib was reduced to a schedule of 5 days on and 2 days off.
(§5) The tumor length and width (mm) were measured using a digital caliper. The estimated tumor volume (mm^3) was calculated according to the following formula: 0.5 x (tumor length) x (tumor width)^2, and reported as the mean ± SEM.

Like-named read-outs stand apart in the source and are kept apart here.

T1 sequence (P31749 whole entry): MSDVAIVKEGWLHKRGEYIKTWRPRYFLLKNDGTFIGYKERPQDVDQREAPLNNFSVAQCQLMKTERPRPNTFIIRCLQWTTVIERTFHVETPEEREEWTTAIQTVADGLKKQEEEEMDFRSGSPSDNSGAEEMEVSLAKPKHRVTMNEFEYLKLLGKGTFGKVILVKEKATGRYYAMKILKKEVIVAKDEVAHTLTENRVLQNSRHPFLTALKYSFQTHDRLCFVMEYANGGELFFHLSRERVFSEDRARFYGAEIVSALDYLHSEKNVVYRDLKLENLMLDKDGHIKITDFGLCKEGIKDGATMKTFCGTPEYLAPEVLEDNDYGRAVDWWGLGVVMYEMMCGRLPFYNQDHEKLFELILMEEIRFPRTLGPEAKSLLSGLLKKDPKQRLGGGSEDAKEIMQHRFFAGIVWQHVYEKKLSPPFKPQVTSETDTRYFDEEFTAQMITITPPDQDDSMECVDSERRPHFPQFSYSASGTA
T2 sequence (P31749 whole entry E17K): as the sequence (P31749 whole entry) above, with E17K counted along it
Description for KPL-4 tumors: as §5

`CC(C)NC[C@@H](C(=O)N1CCN(c2ncnc3c2[C@H](C)C[C@H]3O)CC1)c1ccc(Cl)cc1` [GDC-0068, reference compound]: the IC50 in the experiment on NCI-H1650 (NCI-H1650, 72 h) is above 33.3 µM; in the experiment on KU-19-19 (KU-19-19, 72 h) it was 55 ± 5.1 µM; in the experiment with MDA-MB-453 (MDA-MB-453, 72 h), 1000 ± 160 nM. Further, on AKT1-WT, the “plasma membrane translocation of AKT1-WT” value is reported as “stimulated translocation”. Also, the “plasma membrane translocation of AKT1-E17K” value at AKT1-E17K is on record as “stimulated translocation”.
As for `NC1(c2ccc(-c3nc4ccn5c(=O)[nH]nc5c4cc3-c3ccccc3)cc2)CCC1` [MK-2206, reference compound], the IC50 came to 15.2 ± 3.01 µM with NCI-H1650 (NCI-H1650, MTS, 72 hours, mean ± standard deviation); 21.5 ± 5.3 µM with KU-19-19 (KU-19-19, MTS, 72 hours, mean ± standard deviation); 260 ± 20 nM in the experiment on MDA-MB-453 (MDA-MB-453, MTS, 72 hours, mean ± standard deviation). Besides, the “plasma membrane translocation of AKT1-WT” value on AKT1-WT is listed as “inhibited”. Moreover, the “plasma membrane translocation of AKT1-E17K” value on AKT1-E17K is recorded as “only weakly inhibited”.
For `CC(=O)O[C@H]1C(=O)[C@@]2(C)[C@H]([C@H](OC(=O)c3ccccc3)[C@]3(O)C[C@H](OC(=O)[C@H](O)[C@@H](NC(=O)c4ccccc4)c4ccccc4)C(C)=C1C3(C)C)[C@]1(OC(C)=O)CO[C@@H]1C[C@@H]2O` [paclitaxel, reference compound], the tumor growth inhibition in the experiment on KPL-4 tumors turned out to be 41%.
In the case of `CC(=O)Nc1cccc(-n2c(=O)n(C3CC3)c(=O)c3c(Nc4ccc(I)cc4F)n(C)c(=O)c(C)c32)c1` [trametinib, reference compound], the TGI in experiment [1] is given as 26%.

For the origin of these results see publication PMC4607407 (PLoS ONE, 2015).
